We go through 13 molecules from the SangsterLogP compilation.

Each structure is given as a SMILES string.

As for `CN(C=C1c2cccc(O)c2C(=O)c2c(O)cccc21)c1ccccc1`, the logP – broadly, the decadic logarithm of the partition coefficient of the neutral form, usually between octanol and water – was 5.07. As for `O=C1c2c(O)cccc2C(=CNc2ccc(Br)cc2)c2cccc(O)c21`, the figure is 5.19; as for `CNC=C1c2cccc(O)c2C(=O)c2c(O)cccc21`, 3.55; as for `O=C1c2c(O)cccc2C(=CNc2ccc(O)cc2)c2cccc(O)c21`, 4.01. With `O=C1c2c(O)cccc2C(=CNc2ccc([N+](=O)[O-])cc2)c2cccc(O)c21` the figure was 4.7; with `O=C1c2c(O)cccc2C(=CNCc2ccccc2)c2cccc(O)c21`, 4.23. With `O=C1c2c(O)cccc2C(=CNc2ccc(F)cc2)c2cccc(O)c21` the figure was 4.64.

`O=C1c2c(O)cccc2C(=CNc2ccc(Cl)cc2)c2cccc(O)c21` had a logP of 5.06.

`O=C1c2c(O)cccc2C(=CNc2ccccc2)c2cccc(O)c21`: the log partition coefficient (logP) is 4.96. With `COc1ccc(NC=C2c3cccc(O)c3C(=O)c3c(O)cccc32)cc1` the figure was 4.9; with `COc1ccc(NC=C2c3cccc(O)c3C(=O)c3c(O)cccc32)cc1OC`, 4.37. As for `O=C1c2c(O)cccc2C(=CNc2ccc3c(c2)OCO3)c2cccc(O)c21`, the figure is 4.74; as for `COc1ccccc1NC=C1c2cccc(O)c2C(=O)c2c(O)cccc21`, 4.37.
